PubChem BioAssay AID2060503 (Molecular Pharmacology Branch, DTP, NCI, 2025)

Test system: 817829-284-R-J1-PDC complex spheroids, viability
Experiment: Anticancer human tumor 817829-284-R-J1-PDC patient-derived colon adenocarcinoma cell line growth inhibition [GQUAD]
Settings: for IC50: curve of first compound; for viability, T/C: stronger effect = lower value
Method in brief: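 Tumor cells were grown as complex spheroids with HUVEC endothelial cells and mesenchymal stem cells as stroma. G-quadruplex stabilizers were combined with targeted agents over half-log dilutions from near the clinical Cmax, or from 10 microM.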

[1] = second compound 0.0316 µM, first compound 0.0316 µM
[2] = second compound 0.0316 µM, first compound 0.316 µM
[3] = second compound 0.1 µM, first compound 0.0316 µM
[4] = second compound 0.1 µM, first compound 0.316 µM
[5] = second compound 0.316 µM, first compound 0.0316 µM
[6] = second compound 0.316 µM, first compound 0.316 µM
[7] = second compound 1 µM, first compound 0.0316 µM
[8] = second compound 1 µM, first compound 0.316 µM
[9] = second compound 3.16 µM, first compound 0.0316 µM
[10] = second compound 3.16 µM, first compound 0.316 µM
[11] = second compound 10 µM, first compound 0.0316 µM
[12] = second compound 10 µM, first compound 0.316 µM
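Note: spheroids exposed to agents for 7 days before readout.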
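Throughout, for viability, T/C: percent viability relative to DMSO vehicle control taken as 100%.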

Nc1ccn(C2OC(CO)C(O)C2(F)F)c(=O)n1 (centres undefined) + CN(C)c1ccc(Nc2c3ccc(NC(=O)CCN4CCCC4)cc3nc3cc(NC(=O)CCN4CCCC4)ccc23)cc1
IC50 (second compound 0.0316 µM): < 31.6 nM | IC50 (second compound 0.1 µM): < 31.6 nM | IC50 (second compound 0.316 µM): < 31.6 nM | IC50 (second compound 1 µM): < 31.6 nM | IC50 (second compound 3.16 µM): < 31.6 nM | IC50 (second compound 10 µM): < 31.6 nM | viability, T/C [1]: 11.1% | viability, T/C (second compound 0.0316 µM, first compound 0.1 µM): 6.76% | viability, T/C [2]: 7.53% | viability, T/C (second compound 0.0316 µM, first compound 1 µM): 6.63% | viability, T/C (second compound 0.0316 µM, first compound 3.16 µM): 5.22% | viability, T/C (second compound 0.0316 µM, first compound 10 µM): 3.38% | viability, T/C [3]: 11.5% | viability, T/C (second compound 0.1 µM, first compound 0.1 µM): 7.05% | viability, T/C [4]: 7.75% | viability, T/C (second compound 0.1 µM, first compound 1 µM): 7.5% | viability, T/C (second compound 0.1 µM, first compound 3.16 µM): 5.74% | viability, T/C (second compound 0.1 µM, first compound 10 µM): 4.58% | viability, T/C [5]: 10.2% | viability, T/C (second compound 0.316 µM, first compound 0.1 µM): 7.22% | viability, T/C [6]: 7.51% | viability, T/C (second compound 0.316 µM, first compound 1 µM): 6.86% | viability, T/C (second compound 0.316 µM, first compound 3.16 µM): 5.17% | viability, T/C (second compound 0.316 µM, first compound 10 µM): 3.32% | viability, T/C [7]: 10.5% | viability, T/C (second compound 1 µM, first compound 0.1 µM): 5.85% | viability, T/C [8]: 7.62% | viability, T/C (second compound 1 µM, first compound 1 µM): 8.41% | viability, T/C (second compound 1 µM, first compound 3.16 µM): 6.53% | viability, T/C (second compound 1 µM, first compound 10 µM): 3.73% | viability, T/C [9]: 8.54% | viability, T/C (second compound 3.16 µM, first compound 0.1 µM): 7.05% | viability, T/C [10]: 8.46% | viability, T/C (second compound 3.16 µM, first compound 1 µM): 8.5% | viability, T/C (second compound 3.16 µM, first compound 3.16 µM): 6.92% | viability, T/C (second compound 3.16 µM, first compound 10 µM): 3.39% | viability, T/C [11]: 10.7% | viability, T/C (second compound 10 µM, first compound 0.1 µM): 9.04% | viability, T/C [12]: 8.83% | viability, T/C (second compound 10 µM, first compound 1 µM): 8.64% | viability, T/C (second compound 10 µM, first compound 3.16 µM): 6.59% | viability, T/C (second compound 10 µM, first compound 10 µM): 4.48%

Cn1ncnc1[C@H]1c2n[nH]c(=O)c3cc(F)cc(c23)N[C@@H]1c1ccc(F)cc1 + CN(C)c1ccc(Nc2c3ccc(NC(=O)CCN4CCCC4)cc3nc3cc(NC(=O)CCN4CCCC4)ccc23)cc1
IC50 (second compound 0.0316 µM): > 316 nM | IC50 (second compound 0.1 µM): > 316 nM | IC50 (second compound 0.316 µM): > 316 nM | IC50 (second compound 1 µM): > 316 nM | IC50 (second compound 3.16 µM): > 316 nM | IC50 (second compound 10 µM): > 316 nM | viability, T/C (second compound 0.0316 µM, first compound 0.000999 µM): 91.3% | viability, T/C (second compound 0.0316 µM, first compound 0.00316 µM): 112% | viability, T/C (second compound 0.0316 µM, first compound 0.00999 µM): 112% | viability, T/C [1]: 95% | viability, T/C (second compound 0.0316 µM, first compound 0.0999 µM): 85.1% | viability, T/C [2]: 68.9% | viability, T/C (second compound 0.1 µM, first compound 0.000999 µM): 95.6% | viability, T/C (second compound 0.1 µM, first compound 0.00316 µM): 105% | viability, T/C (second compound 0.1 µM, first compound 0.00999 µM): 95.4% | viability, T/C [3]: 94% | viability, T/C (second compound 0.1 µM, first compound 0.0999 µM): 86.2% | viability, T/C [4]: 80% | viability, T/C (second compound 0.316 µM, first compound 0.000999 µM): 95.8% | viability, T/C (second compound 0.316 µM, first compound 0.00316 µM): 104% | viability, T/C (second compound 0.316 µM, first compound 0.00999 µM): 95.8% | viability, T/C [5]: 101% | viability, T/C (second compound 0.316 µM, first compound 0.0999 µM): 97.7% | viability, T/C [6]: 78.6% | viability, T/C (second compound 1 µM, first compound 0.000999 µM): 90% | viability, T/C (second compound 1 µM, first compound 0.00316 µM): 99% | viability, T/C (second compound 1 µM, first compound 0.00999 µM): 99.6% | viability, T/C [7]: 92.6% | viability, T/C (second compound 1 µM, first compound 0.0999 µM): 90.4% | viability, T/C [8]: 71.8% | viability, T/C (second compound 3.16 µM, first compound 0.000999 µM): 92.2% | viability, T/C (second compound 3.16 µM, first compound 0.00316 µM): 99.7% | viability, T/C (second compound 3.16 µM, first compound 0.00999 µM): 90.6% | viability, T/C [9]: 89.2% | viability, T/C (second compound 3.16 µM, first compound 0.0999 µM): 104% | viability, T/C [10]: 79.9% | viability, T/C (second compound 10 µM, first compound 0.000999 µM): 97.2% | viability, T/C (second compound 10 µM, first compound 0.00316 µM): 97.3% | viability, T/C (second compound 10 µM, first compound 0.00999 µM): 89.6% | viability, T/C [11]: 81.2% | viability, T/C (second compound 10 µM, first compound 0.0999 µM): 79.1% | viability, T/C [12]: 63.4%
